According to the NIST ThermoML archive (doi:10.1016/j.jct.2011.12.013):

Tests used:
[1] = Liquid, Custom Made Vibrating Tube Densimeter
[2] = xn = mol fraction of the nth substance listed; details: Liquid, Custom Made Vibrating Tube Densimeter, x1 = 1

C=C1CC[C@H]2C[C@@H]1C2(C)C [(1S,5S)-6,6-dimethyl-2-methylenebicyclo[3.1.1]heptane]
mass density [kg/m3], [1]
Details | 283.15 K | 298.15 K | 313.15 K | 328.15 K | 343.15 K | 358.15 K
20000 kPa | 891.3 | 880.2 | 869.3 | 858.2 | 847.7 | 837
25000 kPa | 894.2 | 883.3 | 872.6 | 861.7 | 851.4 | 840.9
30000 kPa | 897 | 886.3 | 875.7 | 865.2 | 855 | 844.8
35000 kPa | 899.9 | 889.3 | 878.8 | 868.7 | 858.6 | 848.7
40000 kPa | 902.6 | 892.2 | 882 | 872.2 | 862.1 | 852.6

C=C(C)[C@H]1CC=C(C)CC1 [(R)-1-methyl-4-(1-methylethenyl)cyclohexene]
mass density [kg/m3], [1]
Details | 283.15 K | 298.15 K | 313.15 K | 328.15 K | 343.15 K | 358.15 K
20000 kPa | 862 | 851.5 | 841 | 830.5 | 820.1 | 810.2
25000 kPa | 864.9 | 854.5 | 844.2 | 833.8 | 823.7 | 813.9
30000 kPa | 867.7 | 857.6 | 847.2 | 837.2 | 827.3 | 817.6
35000 kPa | 870.4 | 860.9 | 850.3 | 840.4 | 831.1 | 821.3
40000 kPa | 873.3 | 863.4 | 853.3 | 843.8 | 834.6 | 824.8

C=C(C)[C@H]1CC=C(C)CC1 [(R)-1-methyl-4-(1-methylethenyl)cyclohexene] + C=C1CC[C@H]2C[C@@H]1C2(C)C
mass density [kg/m3], [2]
Details | 283.15 K | 298.15 K | 313.15 K | 328.15 K | 343.15 K | 358.15 K
20000 kPa | 862 | 851.5 | 841 | 830.5 | 820.1 | 810.2
25000 kPa | 864.9 | 854.5 | 844.2 | 833.8 | 823.7 | 813.9
30000 kPa | 867.7 | 857.6 | 847.2 | 837.2 | 827.3 | 817.6
35000 kPa | 870.4 | 860.9 | 850.3 | 840.4 | 831.1 | 821.3
40000 kPa | 873.3 | 863.4 | 853.3 | 843.8 | 834.6 | 824.8
